{"source": "patent US5830994A", "about": "“Peptide derivatives of alpha-MSH and their application” (Institut Europeen De Biologie Cellulaire, priority 1993, dated 1998)", "key": {"[1]": {"system": "DNFB contact hypersensitivity", "assay": "Dinitrofluorobenzene (DNFB) contact hypersensitivity test, ear thickening after topical application", "assay_type": "in vivo, C57 BL/6JICO mice", "conditions": "for % suppression relative to the control batch, LEFT EAR / % suppression relative to the control batch, RIGHT EAR / MEAN VALUES LEFT EAR % INCREASE / MEAN VALUES RIGHT EAR % INCREASE: 5 days", "source_text": "Study of the Anti-allergic activity of the Peptide compounds, by the Dinitrofluorobenzene (DNFB) contact Hypersensitivity test.\nFemale C57 BL/6JICO mice 5 weeks old are separated into ten batches of ten animals (five per cage), with free access to water and food, subjected to a photoperiod of twelve hours of light per twenty-four hours.\nThe animals in batches 1 to 6 receive daily and per topical application on the shaved skin of the back, the products to be studied, dissolved in propylene glycol, in a constant volume of 50 μl and for five consecutive days.\nPIII--Batches 1 - 2 - 3--2.5 μg --0.5 μg--0.1 μg--mouse/day\nPIV--Batches 4 - 5 - 6 - 2.5μg--0.5 μg--0.1 μg--mouse/day\nThe animals of the X batch serve as controls (and receive only, 50 μl of propylene glycol per topical application for five days).\n(§1) On the fifth day, thirty minutes after the last application, all the mice are sensitized with 25 μl of DNFB (2.4-Dinitro-1-FluoroBenzene (FLUKA CHEMIKA PURUM at 97% batch No. 33820890) at 2% in a 4 to 1 mixture of acetone (SDS ref. 0510) and triolein (FLUKA) applied topically over the dorsal region of shaved skin.\nOn the sixth day, a new sensitization is carried out by application of DNFB.\nOn the eleventh day, the thickness of the ears of the mice is measured with the aid of a micrometer (ROCH 0 to 25 mm in 1/100 mm) in order to obtain base values, then the ears are stimulated by topical application of 20 μl of DNFB at 0.8%.\n(§2) On the twelfth day, the thickness of the ears is again measured. The mean value of thickening of the ears is established for the mice in the batches which had received the products to be studied, as well as for the mice in the control batch.\nThe percentage of suppression where appropriate will be expressed by the following calculation: [formula]\nComparative study of the activity of Lipoyl-Peptides and of their peptide structures on DNFB contact hypersensitivity.\nThe method used is that described above in Example 10.\nContact hypersensitivity induced in mice by Dinitrofluorobenzene--\"DNBF\"\nBatch I: (DL) - Lip - Glu - His - D.homoPhe - Arg - Trp - Gly - NH2\nBatch II: H - Glu - His - D.homoPhe - Arg - Trp - Gly - NH2\nBatch III: Control=(DL) - Lipoic Acid\nSolvent: propylene Glycol previously used as control in Example 10.\nControl: dose used\"DL-Lipoic-Acid\"=10 ng per mouse and per day.\nas §1, with “were” for “are”, “05510)” for “0510)”\nas §2, with “batch. The percentage of suppression where appropriate will be expressed by the following calculation: [formula]” for “batch.”"}, "[2]": {"system": "cultured embryonic cells", "assay": "Effects of Peptides PI and PIV on cultured embryonic cells in vitro (melanocytes, neurons, muscular cells, fibroblasts)", "assay_type": "cell-based", "experimental": "Effects of Peptides PI and PIV on cultured embryonic cells in vitro . . . \"Melanocytes - Neurons - Muscular Cells and Fibroblasts . . . \" dose used 1 μg/ml (defined by dose/response trials)\n1 single treatment during the innoculation of the cells or several successive treatments (renewal of the medium every 48 hours) duration of culture: 6 to 8 days\n1) Counting of the melanocytes\n2) Assay of melanin by HPLC and/or by spectrophotometry\nDaily observation of the cultures\nUltrastructure by transmission electron microscopy."}, "[3]": {"system": "embryonic cells (melanoblasts, neuroblasts, myoblasts, epidermal cells, fibroblasts, mesenchymatous cells)", "assay_type": "cell-based, Triton embryo and Axolotl embryo", "experimental": "Qualitative and quantitative analysis of the effects of PIV on melanocyte differentiation in in vitro culture. Sample to be analyzed--compound 4=PIV Embryonic cells isolated in in vitro culture in a defined, purely saline medium (standard culture conditions: 2 ml of medium/culture). The embryonic territory is collected (from Triton embryo and from Axolotl embryo) from the first stage of melanogenesis, immediately after melanocyte induction. At this early stage of embryonic development, the neural swelling, which has just become individualized, contains all the melanoblastic precursors. The culture of the cells of the neural swelling and of the underlying mesoderm makes it possible to coculture (under completely identical conditions) the melanoblasts with various other cell precursors belonging to various categories: neuroblasts, myoblasts, epidermal cells, fibroplasts [sic], mesenchymatous cells. This allows a comparative kinetic study, on a living material, of the effects of PIV on the melanocytes and various other cell types. Duration of the culture (primary culture): 2 to 3 weeks at 20° C. The cell differentiation appears morphologically from the 3rd day and is practically complete at 8-10 days of culture. A series of PIV concentrations was analyzed: 0.01 μg/ml; 0.1 μg/ml; 1 μg/ml; and 10 μg/ml The following 2 doses were therefore selected for this work: 0.1 and 1 μg/ml. 1 single treatment during the innoculation of cultured cells. After their attachment (3 days at 20° C.), the medium is replaced with fresh medium without the Peptide PIV 1 treatment during the innoculation and a 2nd treatment during the change of medium. We developed two melanin assays: by HPLC with electrochemical detection by spectrophotometry (by adaptation of the method of TOMITA et al. 1990) at 470 nm. The development of these assays was carried out using standard solutions of melanin (Sigma, ref. M 8631) in order to define the comparative sensitivity and the minimum level of detection by either of the methods. The μg is the minimum level which can be assayed by spectrophotometry; the ng is the lower level which can be assayed by HPLC. It should however, be observed that these two techniques, especially the spectrophotometric assay, can be used since, for our cell cultures, 15 embryonic explants associated in culture are sufficient to allow quantification (by spectrophotometry)."}}, "note": "“And” between values parts separate entries of the source, which are not always exact repeats. Equal values may be shown once. Read-outs that look alike come from different tables or passages of the source."}
{"substance": "[(DL) Lip] His - D.homoPhe - Arg - Trp - NH2 [PIV]", "values": [{"measurement": "% suppression relative to the control batch, LEFT EAR", "setting": "[1]; 0.1 μg/mouse/day topical", "value": -65.46, "unit": "%"}, {"measurement": "% suppression relative to the control batch, RIGHT EAR", "setting": "[1]; 0.1 μg/mouse/day topical", "value": -65.46, "unit": "%"}, {"measurement": "MEAN VALUES LEFT EAR % INCREASE", "setting": "[1]; 0.1 μg/mouse/day topical", "value": 20.35, "unit": "%"}, {"measurement": "MEAN VALUES RIGHT EAR % INCREASE", "setting": "[1]; 0.1 μg/mouse/day topical", "value": 20.35, "unit": "%"}, {"measurement": "% suppression relative to the control batch, LEFT EAR", "setting": "[1]; 0.5 μg/mouse/day topical", "value": -69.40, "unit": "%"}, {"measurement": "% suppression relative to the control batch, RIGHT EAR", "setting": "[1]; 0.5 μg/mouse/day topical", "value": -69.40, "unit": "%"}, {"measurement": "MEAN VALUES LEFT EAR % INCREASE", "setting": "[1]; 0.5 μg/mouse/day topical", "value": 18.03, "unit": "%"}, {"measurement": "MEAN VALUES RIGHT EAR % INCREASE", "setting": "[1]; 0.5 μg/mouse/day topical", "value": 18.03, "unit": "%"}, {"measurement": "% suppression relative to the control batch, LEFT EAR", "setting": "[1]; 2.5 μg/mouse/day topical", "value": -69.47, "unit": "%"}, {"measurement": "% suppression relative to the control batch, RIGHT EAR", "setting": "[1]; 2.5 μg/mouse/day topical", "value": -69.47, "unit": "%"}, {"measurement": "MEAN VALUES LEFT EAR % INCREASE", "setting": "[1]; 2.5 μg/mouse/day topical", "value": 17.99, "unit": "%"}, {"measurement": "MEAN VALUES RIGHT EAR % INCREASE", "setting": "[1]; 2.5 μg/mouse/day topical", "value": 17.99, "unit": "%"}, {"measurement": "suppression of the cutaneous hypersensitivity reaction induced by DiNitroFluoroBenzene", "setting": "[1]; overall, Example 10 (2.5, 0.5, 0.1 μg/mouse/day)", "value": 68.11, "unit": "%"}, {"measurement": "effect on precursor embryonic cells not yet determined in the melanoblastic pathway (in words)", "setting": "[2]; 1 μg/ml", "value": "no effect"}, {"measurement": "effect on the melanoblasts already induced (in words)", "setting": "[2]; 1 μg/ml", "value": "stimulating effect"}, {"measurement": "number of melanocytes increases by a factor", "setting": "[2]; 1 μg/ml", "value": "≥ 2"}, {"measurement": "toxic effect on astroglial cells (in words)", "setting": "[2]; 1 μg/ml", "value": "No toxic effect"}, {"measurement": "toxic effect on fibroblasts, mesenchyme (in words)", "setting": "[2]; 1 μg/ml", "value": "no toxic effect"}, {"measurement": "quantity of biosynthesized melanin per cell", "setting": "[2]; 1 μg/ml, after eight days of culture", "value": 1.4, "unit": "ng/cell"}, {"measurement": "toxic effect on myoblasts (in words)", "setting": "[2]; 1 μg/ml, even at an ultrastructural level", "value": "no toxic effect"}, {"measurement": "effect on melanogenesis, summary (in words)", "setting": "[2]; qualitative and quantitative", "value": "stimulate melanogenesis"}, {"measurement": "cytotoxic effect on the various cell categories (in words)", "setting": "[2]; summary", "value": "no cytotoxic effect"}, {"measurement": "stimulating effect on the other cell types: neurons, astrocytes, muscle cells, fibroblasts (in words)", "setting": "[2]; summary", "value": "without stimulating effect"}, {"measurement": "cell proliferation of epidermis cells, mesenchymatous cells, fibroblasts (in words)", "setting": "[3]", "value": "no specific cell proliferation"}, {"measurement": "cytotoxic effect on epidermis cells, mesenchymatous cells, fibroblasts (in words)", "setting": "[3]", "value": "no cytotoxic effect"}, {"measurement": "differentiation and behaviour in vitro of epidermis cells, mesenchymatous cells, fibroblasts (in words)", "setting": "[3]", "value": "no retardation or accelaration"}, {"measurement": "number of neurons and size of the cell bodies, neuroblasts (in words)", "setting": "[3]", "value": "no specific stimulating effect"}, {"measurement": "size and spreading of epidermis cells, mesenchymatous cells, fibroblasts (in words)", "setting": "[3]", "value": "no stimulating effect"}, {"measurement": "effect on melanocyte differentiation, dose/response trial (in words)", "setting": "[3]; 0.01 μg/ml", "value": "no effect"}, {"measurement": "effect on melanocyte differentiation, dose/response trial (in words)", "setting": "[3]; 1 μg/ml", "value": "optimal effect"}, {"measurement": "effect on melanogenesis (in words)", "setting": "[3]; 0.1 and 1 μg/ml", "value": "Stimulating effect"}, {"measurement": "Stimulation (melanin, treated vs control cultures)", "setting": "[3]; 1st to 4th experiment", "value": "2.5 × and 2.3 × and 1.5 ×"}, {"measurement": "appearance of phenotypic differentiation of the melanocytes (in words)", "setting": "[3]; treated cultures, from the 2nd day after innoculation, vs control cultures", "value": "more rapidly"}, {"measurement": "number of melanocytes (in words)", "setting": "[3]; treated vs control cultures", "value": "increase"}]}
